# Measurements from PubChem BioAssay AID2060620 (Molecular Pharmacology Branch, DTP, NCI, 2025).
# pIC50: −log10 of the molar value.
# System: 328373-195-R-J1-PDC complex spheroids, viability % test/control
# Experiment: Anticancer human tumor 328373-195-R-J1-PDC patient-derived head and neck squamous carcinoma cell line growth inhibition [CLK]
# Conditions: for pIC50: curve of first compound; for viability, T/C: stronger effect = lower value
# Description: A high-throughput screen of multi-cell type tumor spheroids was designed to identify active combinations of […] and targeted small molecules. Complex spheroids include a stromal component modeled by human endothelial cells (HUVEC) and fibroblasts modeled by human mesenchymal stem cells (MSCs). The concentration ranges selected for each drug and investigational agent were based upon clinically achievable concentrations if the clinical Cmax of the agent was known.
# Compounds. The drugs and investigational agents: cirtuvivint (SM08502; NSC835563), CC-671 (NSC850746), vemurafenib (NSC761431), tapotoclax (NSC804041), sotorasib (NSC818433), adagrasib (NSC831453), MRTX-1133 (NSC836407), BAY2416964 (NSC825713), copanlisib (NSC816437), inavolisib (NSC800729), abemaciclib (NSC768073), osimertinib (NSC779217), entinostat (NSC756642), eltanexor (KPT-8602, NSC794443), venetoclax (NSC766270), ceralasertib (NSC777638), bortezomib (NSC756655), olaparib (NSC753686), talazoparib (NSC767125), alisertib (NSC759677), peposertib (NSC802822), gemcitabine (NSC613327), 5-fluorouracil (NSC19893), SN-38 (NSC673596), oxaliplatin (NSC266046), paclitaxel (NSC125973), and doxorubicin (NSC123127), were obtained from the National Cancer Institute (NCI) Developmental Therapeutics Program Chemical Repository. The FDA-approved anticancer drug set is available from the Developmental Therapeutics Program at https://dtp.cancer.gov/organization/dscb/obtaining/available plates.htm. […] The stock solutions were prepared in dimethyl sulfoxide (DMSO, Sigma-Aldrich, St. Louis, MO, cat. D2650), except for the platinum complexes which were prepared in saline (Quality Biological, Gaithersburg, MD, cat. 114-055-101), at 800-fold the tested concentration and stored at -70 degrees C prior to their use. All drugs and investigational agents were tested over a range starting from a high concentration at or near the clinical Cmax and decreasing in half-log increments. If the clinical Cmax for an agent had not been determined, the highest concentration tested was 10 microM.
# Cell Culture. All cells were maintained in an incubator at 37 degrees C and 5% CO2 with 95% humidity. The PDC lines were cultured according to standard operating procedures established by the NCI PDMR. Briefly, all PDCs were thawed and cultured in Matrigel-coated flasks prepared with a working solution of 1X Ham's F-12 nutrient mix, without supplementation (Invitrogen, Waltham, MA, cat. 11765054), 100 U/mL penicillin-streptomycin (Invitrogen, cat. 15140122), and 2.5% Matrigel (Corning Inc., Corning, NY, cat. 354248) for the first three passages. The 947758-054-R-J2-PDC line was cultured in 6B/Colon 1A media, which includes advanced DMEM/F-12 (Thermo Fisher Scientific, cat. 12634028), 10 mM HEPES (Thermo Fisher Scientific, cat. 15630080), 1X GlutaMAX supplement (Thermo Fisher Scientific, cat. 35050061), 0.1 mg/mL primocin (InvivoGen, cat. ant-pm-2), 10% defined fetal bovine serum, heat inactivated (HyClone Laboratories Inc., cat. SH30070.03HI), 1.25 mM N-Acetyl-L-cysteine (Sigma-Aldrich, cat. A9165), 10 mM nicotinamide (Sigma-Aldrich, cat. N0636), 1X B-27 supplement (Thermo Fisher Scientific, cat. 17504044), 1X N-2 supplement (Thermo Fisher Scientific, cat. 17502048), and 10 microM Y-27632 dihydrochloride (Tocris Bioscience, cat. 1254). The 876862-298-R-J1-PDC was cultured in 6E media, which includes all 6B/Colon 1A media components plus 50% L-WRN conditioned media (ATCC, cat. CRL-3276), 50 ng/mL recombinant human EGF recombinant protein (hEGF; Thermo Fisher Scientific, cat. PHG0311), 10 ng/mL recombinant human fibroblast growth factor 10 (hGFG-10; PeproTech, cat. 100-26), 1 ng/mL recombinant human fibroblast growth factor 2 (hFGF-2; PeproTech, cat. 100-18B), and 1 µM prostaglandin E2 (PGE2; Tocris, cat. 2296). The 227483-062-R1-J1-PDC line was cultured in Panc media, containing all 6E components except hFGF-2, with the addition of 500 nM SB-431542 (Selleckchem, cat. S1067) and 10 nM gastrin (Tocris, cat. 3006). […]
# [1] = second compound 0.0316 µM, first compound 0.0316 µM
# [2] = second compound 0.0316 µM, first compound 0.1 µM
# [3] = second compound 0.0316 µM, first compound 0.316 µM
# [4] = second compound 0.0316 µM, first compound 1 µM
# [5] = second compound 0.0316 µM, first compound 3.16 µM
# [6] = second compound 0.0316 µM, first compound 10 µM
# [7] = second compound 0.1 µM, first compound 0.0316 µM
# [8] = second compound 0.1 µM, first compound 0.1 µM
# [9] = second compound 0.1 µM, first compound 0.316 µM
# [10] = second compound 0.1 µM, first compound 1 µM
# [11] = second compound 0.1 µM, first compound 3.16 µM
# [12] = second compound 0.1 µM, first compound 10 µM
# [13] = second compound 0.316 µM, first compound 0.0316 µM
# [14] = second compound 0.316 µM, first compound 0.1 µM
# [15] = second compound 0.316 µM, first compound 0.316 µM
# [16] = second compound 0.316 µM, first compound 1 µM
# [17] = second compound 0.316 µM, first compound 3.16 µM
# [18] = second compound 0.316 µM, first compound 10 µM
# [19] = second compound 1 µM, first compound 0.0316 µM
# [20] = second compound 1 µM, first compound 0.1 µM
# [21] = second compound 1 µM, first compound 0.316 µM
# [22] = second compound 1 µM, first compound 1 µM
# [23] = second compound 1 µM, first compound 3.16 µM
# [24] = second compound 1 µM, first compound 10 µM
# [25] = second compound 3.16 µM, first compound 0.0316 µM
# [26] = second compound 3.16 µM, first compound 0.1 µM
# [27] = second compound 3.16 µM, first compound 0.316 µM
# [28] = second compound 3.16 µM, first compound 1 µM
# [29] = second compound 3.16 µM, first compound 3.16 µM
# [30] = second compound 3.16 µM, first compound 10 µM
# [31] = second compound 10 µM, first compound 0.0316 µM
# [32] = second compound 10 µM, first compound 0.1 µM
# [33] = second compound 10 µM, first compound 0.316 µM
# [34] = second compound 10 µM, first compound 1 µM
# [35] = second compound 10 µM, first compound 3.16 µM
# [36] = second compound 10 µM, first compound 10 µM
# 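Further: spheroids exposed to the agents for 7 days.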
structure (smiles),measurement,setting,value
CC(Nc1ccc2c(c1)OCCn1cc(N3C(=O)OCC3C(F)F)nc1-2)C(N)=O (centres undefined) + CNC(=O)c1ccc(Nc2nc(OC3CCCC3)c3c(-c4ccc5nc(C)oc5c4)c[nH]c3n2)c(OC)c1,pIC50,second compound 0.0316 µM,5.28
same,pIC50,second compound 0.1 µM,> 7.50
same,pIC50,second compound 0.316 µM,> 7.50
same,pIC50,second compound 1 µM,> 7.50
same,pIC50,second compound 3.16 µM,> 7.50
same,pIC50,second compound 10 µM,> 7.50
same,"viability, T/C",[1],64.5%
same,"viability, T/C",[2],63%
same,"viability, T/C",[3],56.1%
same,"viability, T/C",[4],61.7%
same,"viability, T/C",[5],57%
same,"viability, T/C",[6],41.6%
same,"viability, T/C",[7],12.4%
same,"viability, T/C",[8],12.9%
same,"viability, T/C",[9],11.3%
same,"viability, T/C",[10],13.8%
same,"viability, T/C",[11],10.4%
same,"viability, T/C",[12],10.2%
same,"viability, T/C",[13],10.3%
same,"viability, T/C",[14],11%
same,"viability, T/C",[15],12.6%
same,"viability, T/C",[16],9.39%
same,"viability, T/C",[17],9.16%
same,"viability, T/C",[18],11.8%
same,"viability, T/C",[19],12%
same,"viability, T/C",[20],10.1%
same,"viability, T/C",[21],9.86%
same,"viability, T/C",[22],10.9%
same,"viability, T/C",[23],10.3%
same,"viability, T/C",[24],10.2%
same,"viability, T/C",[25],11.7%
same,"viability, T/C",[26],11%
same,"viability, T/C",[27],11.4%
same,"viability, T/C",[28],8.89%
same,"viability, T/C",[29],13.5%
same,"viability, T/C",[30],8.5%
same,"viability, T/C",[31],11.8%
same,"viability, T/C",[32],11.6%
same,"viability, T/C",[33],10.7%
same,"viability, T/C",[34],11.9%
same,"viability, T/C",[35],13.7%
same,"viability, T/C",[36],11%
CCCS(=O)(=O)Nc1ccc(F)c(C(=O)c2c[nH]c3ncc(-c4ccc(Cl)cc4)cc23)c1F + CN1CCN(c2cc(C(=O)Nc3cc4cc(-c5cnn(C)c5)ccc4cn3)ccn2)CC1,pIC50,second compound 0.0316 µM,< 5.00
same,pIC50,second compound 0.1 µM,< 5.00
same,pIC50,second compound 0.316 µM,> 7.50
same,pIC50,second compound 1 µM,> 7.50
same,pIC50,second compound 3.16 µM,> 7.50
same,pIC50,second compound 10 µM,> 7.50
same,"viability, T/C",[1],102%
same,"viability, T/C",[2],91.4%
same,"viability, T/C",[3],109%
same,"viability, T/C",[4],100%
same,"viability, T/C",[5],101%
same,"viability, T/C",[6],81.6%
same,"viability, T/C",[7],78.8%
same,"viability, T/C",[8],82.2%
same,"viability, T/C",[9],83.7%
same,"viability, T/C",[10],86.6%
same,"viability, T/C",[11],96.5%
same,"viability, T/C",[12],81.7%
same,"viability, T/C",[13],35.8%
same,"viability, T/C",[14],38.5%
same,"viability, T/C",[15],34.8%
same,"viability, T/C",[16],40%
same,"viability, T/C",[17],34.7%
same,"viability, T/C",[18],28.9%
same,"viability, T/C",[19],2.19%
same,"viability, T/C",[20],1.09%
same,"viability, T/C",[21],2.63%
same,"viability, T/C",[22],2.9%
same,"viability, T/C",[23],1.71%
same,"viability, T/C",[24],0.31%
same,"viability, T/C",[25],0.65%
same,"viability, T/C",[26],1.41%
same,"viability, T/C",[27],2.96%
same,"viability, T/C",[28],1.01%
same,"viability, T/C",[29],1.06%
same,"viability, T/C",[30],0.14%
same,"viability, T/C",[31],1.51%
same,"viability, T/C",[32],3.41%
same,"viability, T/C",[33],0.81%
same,"viability, T/C",[34],2.54%
same,"viability, T/C",[35],2.37%
same,"viability, T/C",[36],0.63%
